Values after ≈ are worked out from the molar mass of the structure shown.
How the values were obtained:
Assay type in all cases: cell-based
[1] = system: Aspergillus species; test: Spore germination inhibition assay; details: percent spore germination inhibition, 10 hrs at 37° C
Experimental: (§1) Pathogenic strains of fungi were obtained from the Mycology Department of Vallabhbhai Patel Chest Institute, Delhi. All the strains were grown on Sabouraud dextrose agar at 37°C. The conidia form these cultures were harvested and suspended in Sabouraud maltose broth. The number of conidia was counted using haemocytometer and their number in the suspension was adjusted to as per need of the experiment.
The modified spore germination inhibition assay was performed as described earlier (Sureder P. and Janaiah C., 1987, Ind. J. Expt. Biol., 25, 233-234). The fungal species were grown on Sabouraud dextrose agar plates at 37°C for 96 h. […] The conidia were counted and their number in the suspension was adjusted to 1x10^4 per ml. The standard drug Amphotericin B and test samples were initially dissolved in minimal quantity of dimethylsulfoxide (DMSO) and then diluted with Sabouraud dextrose medium. […] The number of germinated and non-germinated spores was counted. The percent spore germination inhibition (PSGI) was calculated using following formula PSGI = 100-(No.of spores germinated in drug treated well)/(No.of spores germinated in control well) [formula] […]
The spore germination inhibition assay was performed to evaluate the activity of the compound. […] The number of germinated and non-germinated spores was counted and the percent spore germination inhibition (PSGI) was calculated. […]

[2] = system: Aspergillus sp.; test: Microbroth dilution assay, MIC over the three species; details: no visual growth of the three species of Aspergillus, 48 h
Experimental: as §1
The antifungal susceptibility of the fungi to various fractions or the purified component was assayed by the microbroth, dilution method (Forthergill A.W. and McGough A.W., 1995, Clin. Microbiol. Procedure Handbook. In Vitro susceptibility Testing of Yeast, 5.15.1-5.15.15). The fungal spores were harvested from 96-h cultures and their number adjusted to 1x10^6 per ml. The Sabouraud Dextrose medium was dissolved in glass double distilled water and autoclaved at 10 psi for 15 min. 90-µl medium was added into the wells of cell culture plates. The different concentrations of the extract, fractions or the purified compound were prepared in duplicate wells and then the wells were inoculated with 10 µl of spore suspension. The plates were incubated at 37°C and examined macroscopically after 48 h for the growth of fungal mycelia. The activity was represented as -ve if growth was there and +ve if medium appeared clear with out any growth of fungi. […]

[3] = system: Aspergillus; test: Disc diffusion assay, overall result for Aspergillus; details: concentration developing zone of inhibition of 6.0-mm diameter
Experimental: as §1
The leftover residue was finally dissolved in methanol. Dried fractions were examined for their antifungal activity.
The disc diffusion test was performed as per described in the section of details of invention. Amphotericin B 1.25 µg/disc was used in assay as positive control standard drug. Additional discs impregnated with equivalent amount of solvent were also used in the assay as negative controls (Fig: 5). […] Table 2: Antifungal activity of compound by disc diffusion method

SMILES: CCCCC(=O)OC(C)CC1NCC(C)=C1C (stereo not shown) [PC-1, 2-(3,4-dimethyl-2,5-dihydro-1H-pyrrol-2-yl)-1-methylethyl pentanoate]
- MIC [1]: 87.5 µg/mL (≈ 366 µM)
- MIC [2]: 87.5 µg/mL (≈ 366 µM)
- MIC [3]: 5 µg/disc
- MIC ([3]; listed as novel antifungal lead molecule): 5.0 µg/disc

Reference: patent EP1487791B1, “A NOVEL ANTIFUNGAL MOLECULE 2-(3,4-DIMETHYL-2,5-DIHYDRO-1H-PYRROL-2-YL)- METHYLETHYL PENTANOATE” (priority 2002, dated 2003)
